This is an account of results in ChEMBL document CHEMBL3046461, “Synthesis and herbicidal activity of sulfonanilides having a pyrimidinyl-containing group at the 2-position” (J Pestic Sci, 2011).

Where only a bound is given, the exact number is not on record here.

For one data set, the system named is Pontederia vaginalis. In words: Herbicidal activity against Monochoria vaginalis assessed as induction of crop damage after 28 days post compound application. Format: functional.
Another data set deals with Oryza sativa. In words: Phytotoxicity against two-leaf stage paddy Oryza sativa (rice) seedlings assessed as induction of crop damage after 28 days post compound application. As to conditions: in vivo, 672 h. Format: organism-based.
For data set [1], the system named is Schoenoplectiella juncoides. In words: Herbicidal activity against Schoenoplectiella juncoides subsp. Hotarui (Ohwi) T. Koyama assessed as induction of crop damage after 28 days post compound application. Format: functional.
The next data set relates to Echinochloa oryzicola. In words: Herbicidal activity against Echinochloa oryzicola assessed as induction of crop damage after 28 days post compound application. Format: functional.

For `COCc1cccc(C(O)c2nc(OC)cc(OC)n2)c1NS(=O)(=O)C(F)F` (stereo unspecified), the ED90 (in the data set on Pontederia vaginalis; in data set [1]) was 4 gAi/ha each time. The ED20 in the data set on Oryza sativa came out at 63 gAi/ha; in the data set with Echinochloa oryzicola, 16 gAi/ha.
As to `CCOc1cccc(C(O)c2nc(OC)cc(OC)n2)c1NS(=O)(=O)C(F)F` (stereo unspecified), the ED90 (in the data set on Pontederia vaginalis; in data set [1]) was 16 gAi/ha in each case. The results for the ED20 with Oryza sativa and in the data set with Echinochloa oryzicola were 16 gAi/ha and 63 gAi/ha, respectively.
Turning to `CCCOc1cccc(C(O)c2nc(OC)cc(OC)n2)c1NS(=O)(=O)C(F)F` (stereo unspecified), the ED90 in the data set on Pontederia vaginalis stood at 63 gAi/ha; in data set [1], 250 gAi/ha. Also, the ED20 is listed as 63 gAi/ha with Oryza sativa and 250 gAi/ha with Echinochloa oryzicola.
`COc1cc(OC)nc(C(O)c2cccc(Oc3ccccc3)c2NS(=O)(=O)C(F)F)n1` (stereo unspecified): the ED90 was 250 gAi/ha with Pontederia vaginalis and >1000 gAi/ha in data set [1]. Also, the ED20 was 1000 gAi/ha in the data set on Oryza sativa and >1000 gAi/ha in the data set with Echinochloa oryzicola.
On to `COc1cc(OC)nc(C(O)c2cccc(SC)c2NS(=O)(=O)C(F)F)n1` (stereo unspecified), for which the ED90 (with Pontederia vaginalis; in data set [1]) was 63 gAi/ha each time. Moreover, the values for the ED20 with Oryza sativa and with Echinochloa oryzicola were 63 gAi/ha and 250 gAi/ha, respectively.
As to `CCSC(c1nc(OC)cc(OC)n1)c1ccccc1NS(=O)(=O)C(F)(F)F` (stereo unspecified), the ED90 in the data set on Pontederia vaginalis turned out to be 16 gAi/ha; in data set [1] it was 4 gAi/ha. Moreover, the ED20 was determined as 63 gAi/ha in the data set on Oryza sativa and 1000 gAi/ha in the data set on Echinochloa oryzicola.
Regarding `CC[S+]([O-])C(c1nc(OC)cc(OC)n1)c1ccccc1NS(=O)(=O)C(F)(F)F` (stereo unspecified), the ED90 came out at 1000 gAi/ha in the data set with Pontederia vaginalis and 63 gAi/ha in data set [1]. For the same compound, the ED20 in the data set with Oryza sativa was 1000 gAi/ha; in the data set with Echinochloa oryzicola it was >1000 gAi/ha.
For `CCS(=O)(=O)C(c1nc(OC)cc(OC)n1)c1ccccc1NS(=O)(=O)C(F)(F)F` (stereo unspecified), the ED90 (with Pontederia vaginalis; in data set [1]) was 250 gAi/ha throughout. Besides, the results for the ED20 with Oryza sativa and in the data set with Echinochloa oryzicola were 1000 gAi/ha and >1000 gAi/ha, respectively.
As for `COc1cc(OC)nc(C(O)c2c(F)cccc2NS(=O)(=O)C(F)F)n1` (stereo unspecified), the ED90 (with Pontederia vaginalis; in data set [1]) was 16 gAi/ha throughout. For the same compound, the figures for the ED20 in the data set on Oryza sativa and in the data set with Echinochloa oryzicola were 16 gAi/ha and 63 gAi/ha, respectively.
Turning to `COc1cc(OC)nc(C(O)c2c(Cl)cccc2NS(=O)(=O)C(F)F)n1` (stereo unspecified), the ED90 with Pontederia vaginalis is 64 gAi/ha; in data set [1], 250 gAi/ha. Besides, the values for the ED20 with Oryza sativa and in the data set with Echinochloa oryzicola were 1000 gAi/ha and >1000 gAi/ha, respectively.
On to `COc1cc(OC)nc(C(O)c2cc(Cl)ccc2NS(=O)(=O)C(F)F)n1` (stereo unspecified), for which the ED90 in the data set with Pontederia vaginalis was 1000 gAi/ha; in data set [1], >1000 gAi/ha. The ED20 with Oryza sativa was 1000 gAi/ha; in the data set with Echinochloa oryzicola it was >1000 gAi/ha.
In the case of `COc1ccc(NS(=O)(=O)C(F)F)c(C(O)c2nc(OC)cc(OC)n2)c1` (stereo unspecified), the ED90 is reported as 250 gAi/ha with Pontederia vaginalis and >1000 gAi/ha in data set [1]. The ED20 was 63 gAi/ha in the data set on Oryza sativa and >1000 gAi/ha in the data set on Echinochloa oryzicola.
As to `COc1cc(OC)nc(C(O)c2ccc(Cl)cc2NS(=O)(=O)C(F)F)n1` (stereo unspecified), the ED90 (in the data set with Pontederia vaginalis; in data set [1]) was 63 gAi/ha throughout. Besides, the ED20 amounted to 63 gAi/ha in the data set on Oryza sativa and 250 gAi/ha in the data set on Echinochloa oryzicola.
For `COc1cc(OC)nc(C(O)c2ccc(C)cc2NS(=O)(=O)C(F)F)n1` (stereo unspecified), the ED90 (in the data set with Pontederia vaginalis; in data set [1]) was 16 gAi/ha throughout. Also, the values for the ED20 with Oryza sativa and with Echinochloa oryzicola were 16 gAi/ha and 1000 gAi/ha, respectively.
Turning to `COc1ccc(C(O)c2nc(OC)cc(OC)n2)c(NS(=O)(=O)C(F)F)c1` (stereo unspecified), the ED90 was found to be 16 gAi/ha in the data set on Pontederia vaginalis and 63 gAi/ha in data set [1]. In addition, the ED20 in the data set with Oryza sativa and with Echinochloa oryzicola was 16 gAi/ha throughout.
`COc1cc(OC)nc(C(O)c2cccc(F)c2NS(=O)(=O)C(F)F)n1` (stereo unspecified): the ED90 (with Pontederia vaginalis; in data set [1]) was 4 gAi/ha throughout. Further, the ED20 in the data set on Oryza sativa is listed as 16 gAi/ha; with Echinochloa oryzicola, 250 gAi/ha.
For the compound `COc1cc(OC)nc(C(O)c2cccc(C)c2NS(=O)(=O)C(F)F)n1` (stereo unspecified), the ED90 in the data set with Pontederia vaginalis is 4 gAi/ha; in data set [1] it was 16 gAi/ha. Besides, the ED20 with Oryza sativa and in the data set on Echinochloa oryzicola was 16 gAi/ha each time.
For the compound `COc1cc(OC)nc(C(O)c2cccc(OC)c2NS(=O)(=O)C(F)F)n1` (stereo unspecified), the ED90 came to 16 gAi/ha in the data set on Pontederia vaginalis and 63 gAi/ha in data set [1]. For the same compound, the ED20 is given as 4 gAi/ha with Oryza sativa and 16 gAi/ha with Echinochloa oryzicola.
For the compound `CCc1cccc(C(O)c2nc(OC)cc(OC)n2)c1NS(=O)(=O)C(F)F` (stereo unspecified), the ED90 in the data set with Pontederia vaginalis is listed as 16 gAi/ha; in data set [1], 4 gAi/ha. The ED20 with Oryza sativa worked out at 63 gAi/ha; in the data set on Echinochloa oryzicola it was 16 gAi/ha.
Take `CCCc1cccc(C(O)c2nc(OC)cc(OC)n2)c1NS(=O)(=O)C(F)F` (stereo unspecified): the results for the ED90 (with Pontederia vaginalis; in data set [1]) were 16 gAi/ha and 63 gAi/ha, respectively. Moreover, the ED20 with Oryza sativa is 63 gAi/ha; in the data set on Echinochloa oryzicola it was 16 gAi/ha.
Consider `COc1cc(OC)nc(C(O)c2ccccc2NS(=O)(=O)CF)n1` (stereo unspecified), for which the ED90 (with Pontederia vaginalis; in data set [1]) was 16 gAi/ha throughout. Also, the ED20 in the data set on Oryza sativa and in the data set with Echinochloa oryzicola was 63 gAi/ha each time.
For `COc1cc(OC)nc(C(O)c2ccccc2NS(=O)(=O)CCl)n1` (stereo unspecified), the ED90 in the data set with Pontederia vaginalis is on record as 16 gAi/ha; in data set [1], 63 gAi/ha. Besides, the ED20 amounted to 250 gAi/ha with Oryza sativa and 1000 gAi/ha in the data set with Echinochloa oryzicola.
For `COc1cc(OC)nc(C(O)c2ccccc2NS(=O)(=O)CC#N)n1` (stereo unspecified), in that order: 63 gAi/ha, 250 gAi/ha, 250 gAi/ha and 1000 gAi/ha.
In the case of `COc1cc(OC)nc(C(O)c2ccccc2NS(=O)(=O)C/C=C/Cl)n1` (stereo unspecified), the ED90 worked out at 250 gAi/ha in the data set on Pontederia vaginalis and 1000 gAi/ha in data set [1]. For the same compound, the ED20 with Oryza sativa is on record as 250 gAi/ha; with Echinochloa oryzicola, >1000 gAi/ha.
For `COc1cc(OC)nc(C(O)c2ccccc2NS(C)(=O)=O)n1` (stereo unspecified), the ED90 is 250 gAi/ha with Pontederia vaginalis and >1000 gAi/ha in data set [1]. Further, the ED20 is on record as 63 gAi/ha in the data set on Oryza sativa and 1000 gAi/ha in the data set with Echinochloa oryzicola.
The corresponding values for `CCS(=O)(=O)Nc1ccccc1C(O)c1nc(OC)cc(OC)n1` (stereo unspecified) are 1000 gAi/ha, >1000 gAi/ha, 1000 gAi/ha and 1000 gAi/ha.
In the case of `COc1cc(OC)nc(C(O)c2ccccc2NS(=O)(=O)C(C)C)n1` (stereo unspecified), the ED90 was 1000 gAi/ha with Pontederia vaginalis and >1000 gAi/ha in data set [1]. Further, the ED20 is listed as 1000 gAi/ha in the data set on Oryza sativa and >1000 gAi/ha with Echinochloa oryzicola.
As for `COc1cc(OC)nc(C(O)c2ccccc2NS(=O)(=O)c2ccccc2)n1` (stereo unspecified), the ED90 is reported as 1000 gAi/ha in the data set with Pontederia vaginalis and >1000 gAi/ha in data set [1]. Moreover, the ED20 in the data set with Oryza sativa is 1000 gAi/ha; in the data set on Echinochloa oryzicola it was >1000 gAi/ha.
`COc1cc(OC)nc(C(O)c2ccccc2NS(N)(=O)=O)n1` (stereo unspecified): the ED90 in the data set on Pontederia vaginalis was 1000 gAi/ha; in data set [1], >1000 gAi/ha. For the same compound, the ED20 was found to be 250 gAi/ha in the data set on Oryza sativa and 1000 gAi/ha in the data set on Echinochloa oryzicola.
For the compound `COc1cc(OC)nc(C(=O)c2ccccc2NS(=O)(=O)C(F)(F)F)n1`, the ED90 (in the data set on Pontederia vaginalis; in data set [1]) was 16 gAi/ha each time. For the same compound, the results for the ED20 in the data set with Oryza sativa and with Echinochloa oryzicola were 63 gAi/ha and 1000 gAi/ha, respectively.
Take `COc1cc(OC)nc(C(OC)c2ccccc2NS(=O)(=O)C(F)(F)F)n1` (stereo unspecified): the ED90 is reported as 16 gAi/ha in the data set on Pontederia vaginalis and 63 gAi/ha in data set [1]. The ED20 in the data set on Oryza sativa and in the data set with Echinochloa oryzicola was 63 gAi/ha each time.
Turning to `COc1cc(OC)nc(C(O[Si](C)(C)C)c2ccccc2NS(=O)(=O)C(F)(F)F)n1` (stereo unspecified), the ED90 (with Pontederia vaginalis; in data set [1]) was 4 gAi/ha in each case. Moreover, the ED20 with Oryza sativa is 63 gAi/ha; in the data set on Echinochloa oryzicola, 1000 gAi/ha.
Consider `COc1cc(OC)nc(C(OC(C)=O)c2ccccc2NS(=O)(=O)C(F)(F)F)n1` (stereo unspecified), for which the ED90 in the data set with Pontederia vaginalis is 16 gAi/ha; in data set [1] it was 4 gAi/ha. Besides, the ED20 in the data set with Oryza sativa is listed as 63 gAi/ha; with Echinochloa oryzicola it was >1000 gAi/ha.
For `C/C=N/OC(c1nc(OC)cc(OC)n1)c1ccccc1NS(=O)(=O)C(F)(F)F` (stereo unspecified), in that order: 63 gAi/ha, 16 gAi/ha, 63 gAi/ha and 1000 gAi/ha.
On to `COc1cc(OC)nc(C(Cl)c2ccccc2NS(=O)(=O)C(F)(F)F)n1` (stereo unspecified), for which the figures for the ED90 (in the data set with Pontederia vaginalis; in data set [1]) were 16 gAi/ha and 4 gAi/ha, respectively. The ED20 with Oryza sativa is recorded as 63 gAi/ha; in the data set with Echinochloa oryzicola, 1000 gAi/ha.
As to `COc1cc(OC)nc(C(c2ccccc2NS(=O)(=O)C(F)(F)F)N(C)C)n1` (stereo unspecified), the results for the ED90 (in the data set on Pontederia vaginalis; in data set [1]) were 63 gAi/ha and 16 gAi/ha, respectively. Moreover, the ED20 in the data set with Oryza sativa was 250 gAi/ha; in the data set with Echinochloa oryzicola, >1000 gAi/ha.
With `COc1cc(OC)nc(C(S)c2ccccc2NS(=O)(=O)C(F)(F)F)n1` (stereo unspecified), the ED90 (in the data set with Pontederia vaginalis; in data set [1]) was 63 gAi/ha in each case. The values for the ED20 in the data set on Oryza sativa and with Echinochloa oryzicola were 250 gAi/ha and >1000 gAi/ha, respectively.
In the case of `COc1cc(OC)nc(C(O)c2ccccc2NS(=O)(=O)C(F)(F)F)n1` (stereo unspecified), the ED90 (with Pontederia vaginalis; in data set [1]) was 4 gAi/ha each time. Further, the ED20 in the data set on Oryza sativa amounted to 63 gAi/ha; in the data set on Echinochloa oryzicola, 1000 gAi/ha.
In the case of `COc1cc(OC)nc(C(O)c2ccccc2NS(=O)(=O)C(F)F)n1` (stereo unspecified), the ED90 in the data set with Pontederia vaginalis is 4 gAi/ha; in data set [1] it was 16 gAi/ha. Moreover, the ED20 in the data set on Oryza sativa is recorded as 63 gAi/ha; with Echinochloa oryzicola, 250 gAi/ha.
